Measured values as given in publication PMC12329525, “All-stage targeted therapy for invasive cryptococcosis through interaction between the secretory protein Cig1 and hemin” (Asian Journal of Pharmaceutical Sciences, 2025).

Tests used:
[1] = target: T1, BSA (Bos taurus, UniProt P02769); assay: UV-vis absorption spectra (Soret shift of complex); type: binding; conditions: PBS, 37 °C, 15 min; hemin in excess over BSA
T1 construct: gene ALB

[2] = target: T2, Cig1 (Cryptococcus neoformans, UniProt J9VUB8); conditions: PBS, 25 °C; hemin from DMSO stock
T2 construct: gene CNAG_01653
T2 sequence (J9VUB8 entry or part of it): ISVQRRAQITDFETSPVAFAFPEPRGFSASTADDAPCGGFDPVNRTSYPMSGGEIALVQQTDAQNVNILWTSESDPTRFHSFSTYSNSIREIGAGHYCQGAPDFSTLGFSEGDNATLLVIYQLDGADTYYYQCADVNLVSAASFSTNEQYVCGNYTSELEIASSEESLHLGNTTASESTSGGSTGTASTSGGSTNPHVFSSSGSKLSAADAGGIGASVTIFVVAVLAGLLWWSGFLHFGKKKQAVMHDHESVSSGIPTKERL

T1 sequence (P02769 25-607): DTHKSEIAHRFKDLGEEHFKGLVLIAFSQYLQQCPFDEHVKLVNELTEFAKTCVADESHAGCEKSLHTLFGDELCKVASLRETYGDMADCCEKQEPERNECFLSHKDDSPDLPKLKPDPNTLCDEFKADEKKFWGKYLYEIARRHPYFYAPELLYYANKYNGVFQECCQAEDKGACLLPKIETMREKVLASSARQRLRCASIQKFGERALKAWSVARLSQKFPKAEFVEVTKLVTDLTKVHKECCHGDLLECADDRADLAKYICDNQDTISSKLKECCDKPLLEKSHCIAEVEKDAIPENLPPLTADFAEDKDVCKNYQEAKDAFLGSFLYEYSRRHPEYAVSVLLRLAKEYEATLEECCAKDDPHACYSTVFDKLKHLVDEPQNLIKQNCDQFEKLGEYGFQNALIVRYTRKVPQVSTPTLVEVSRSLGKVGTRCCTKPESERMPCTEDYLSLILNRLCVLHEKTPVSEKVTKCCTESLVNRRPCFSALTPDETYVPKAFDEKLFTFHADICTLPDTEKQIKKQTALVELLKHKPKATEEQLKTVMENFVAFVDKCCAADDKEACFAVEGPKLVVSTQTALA

With C=CC1=C(C)C2=Cc3c(C=C)c(C)c4[n]3[Fe]([Cl])[n]3c(c(C)c(CCC(=O)O)c3=CC3=NC(=C4)C(C)=C3CCC(=O)O)=CC1=N2 [hemin] the “UV-vis absorption spectra (Soret shift of complex)” value [1] was “Hemin@BSA exhibited a red shift in its absorption peak” and the Kd [2] was 9.81×10^‒7 mol/l.
